Legend:
[1] = Solubility determination; conditions: for Sol6: pH 6; for Sol7: pH 7
How it was run: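 Shake-flask style: 10 mg/ml peptide (TFA salt), 0.1 M sodium diphosphate pH 6.4/7.0, 600 rpm, 2 h, RT; filter; dilute 1 mg/ml in 50% MeCN; RP-UPLC, 0–100% B over 2 min, 50 °C. Solubility = sample/control area ratio. Final pH recorded.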

[2] = biological target: T1, human NPY1 receptor (hY1R) (Homo sapiens, UniProt P25929); experiment: HTRF cAMP Gi assay, hY1R; format: cell-based; conditions: CHO-K1 cells
T1 construct: expressed in transfected cells; host or cells: CHO-K1
T1 sequence (P25929 1-384): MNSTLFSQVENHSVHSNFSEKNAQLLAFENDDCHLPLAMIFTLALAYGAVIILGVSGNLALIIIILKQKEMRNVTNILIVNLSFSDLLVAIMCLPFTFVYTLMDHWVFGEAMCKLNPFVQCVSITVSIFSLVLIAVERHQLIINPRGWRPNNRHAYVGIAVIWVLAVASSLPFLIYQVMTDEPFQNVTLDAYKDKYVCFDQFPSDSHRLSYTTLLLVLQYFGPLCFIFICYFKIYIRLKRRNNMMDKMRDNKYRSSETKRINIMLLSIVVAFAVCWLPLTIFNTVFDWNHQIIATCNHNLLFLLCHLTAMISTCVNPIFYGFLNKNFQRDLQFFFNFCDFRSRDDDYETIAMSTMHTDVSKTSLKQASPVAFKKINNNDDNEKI
Description: (§1) Briefly, the production of intracellular cAMP will generate a competition between unlabeled cAMP and exogenously added d2-cAMP for anti-cAMP antibodies conjugated to cryptate. CHO-K1 cells stably expressing the human NPY1, NPY2, NPY4 and NPY5 receptors were used with the cells brought to life from a frozen stock immediately before assay performance. 2000 cells per well were applied for all four NPY receptor subtype assays. A 384-well format was used applying a total volume of 20 μl using 5 μl cells, 2.5 μl peptide agonist, 2.5 μl forskolin and 5 μl of each of the fluorophores. […] Concentration-response evaluation of compounds was performed with 11 concentrations of agonist peptides (covering 3 decades). EC50 values were calculated by nonlinear regression using sigmoid concentration-response with variable slope.

[3] = biological target: T2, Human Neuropeptide Y2 Receptor (Homo sapiens, UniProt P49146); experiment: Radioligand binding competition assay (RLB); conditions: Table 3, 125I-PYY(1-36) competition; read-out: Ki
T2 construct: purchased CHEMICON HTS066M
T2 sequence (P49146 1-381): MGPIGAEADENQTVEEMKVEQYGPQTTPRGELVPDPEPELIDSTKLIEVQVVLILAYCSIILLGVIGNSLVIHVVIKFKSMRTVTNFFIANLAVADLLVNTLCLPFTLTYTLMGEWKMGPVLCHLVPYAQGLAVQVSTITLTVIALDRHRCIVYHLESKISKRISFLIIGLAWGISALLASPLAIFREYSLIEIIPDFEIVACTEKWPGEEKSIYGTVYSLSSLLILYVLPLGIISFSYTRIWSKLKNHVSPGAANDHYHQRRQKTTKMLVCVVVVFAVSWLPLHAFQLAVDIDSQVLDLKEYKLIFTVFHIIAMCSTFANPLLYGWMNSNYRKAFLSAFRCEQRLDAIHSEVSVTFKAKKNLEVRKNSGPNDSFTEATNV
How it was run: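 IC50 values come from sigmoidal dose-response fits of scintillation counts after peptides competed for radioligand binding at receptor membranes (0.5 μg protein/well). Incubation ran 2 h at room temperature in HEPES buffer, pH 7.4, with Mg2+, Ca2+ and 0.2% ovalbumin.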

[4] = biological target: T3, human NPY5 receptor (hY5R) (Homo sapiens, UniProt Q15761); experiment: HTRF cAMP Gi assay, hY5R
T3 sequence (Q15761 1-445): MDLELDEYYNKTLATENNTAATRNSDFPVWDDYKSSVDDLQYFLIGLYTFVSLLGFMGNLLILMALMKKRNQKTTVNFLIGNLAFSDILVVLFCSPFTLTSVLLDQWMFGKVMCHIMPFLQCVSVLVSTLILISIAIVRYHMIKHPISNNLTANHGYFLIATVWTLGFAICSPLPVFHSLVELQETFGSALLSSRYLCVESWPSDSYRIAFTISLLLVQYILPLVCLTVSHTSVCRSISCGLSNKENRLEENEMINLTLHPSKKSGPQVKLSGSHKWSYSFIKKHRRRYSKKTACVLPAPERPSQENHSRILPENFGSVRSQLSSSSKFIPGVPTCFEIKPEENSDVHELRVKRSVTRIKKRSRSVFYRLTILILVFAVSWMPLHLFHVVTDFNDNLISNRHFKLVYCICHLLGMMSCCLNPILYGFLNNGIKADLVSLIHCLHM
Description: as §1

[5] = biological target: T4, human NPY2 receptor (hY2R) (Homo sapiens, UniProt P49146); experiment: HTRF cAMP Gi assay, hY2R
T4 sequence (P49146 1-381): T2 sequence (P49146 1-381)
Excerpt: The Homogenous Time Resolved fluorescence (HTRF) technology optimized for Gi coupled receptors has thoroughly been described in Cisbio cAMP Gi kit manual. Briefly, the production of intracellular cAMP will generate a competition between unlabeled cAMP and exogenously added d2-cAMP for anti-cAMP antibodies conjugated to cryptate. CHO-K1 cells stably expressing the human NPY1, NPY2, NPY4 and NPY5 receptors were used with the cells brought to life from a frozen stock immediately before assay performance. 2000 cells per well were applied for all four NPY receptor subtype assays. A 384-well format was used applying a total volume of 20 μl using 5 μl cells, 2.5 μl peptide agonist, 2.5 μl forskolin and 5 μl of each of the fluorophores. […] Concentration-response evaluation of compounds was performed with 11 concentrations of agonist peptides (covering 3 decades). EC50 values were calculated by nonlinear regression using sigmoid concentration-response with variable slope.

[6] = biological target: T5, human NPY4 receptor (hY4R) (Homo sapiens, UniProt P50391); experiment: HTRF cAMP Gi assay, hY4R; format: cell-based; conditions: CHO-K1 cells
T5 construct: expressed in transfected cells; host or cells: CHO-K1
T5 sequence (P50391 whole entry): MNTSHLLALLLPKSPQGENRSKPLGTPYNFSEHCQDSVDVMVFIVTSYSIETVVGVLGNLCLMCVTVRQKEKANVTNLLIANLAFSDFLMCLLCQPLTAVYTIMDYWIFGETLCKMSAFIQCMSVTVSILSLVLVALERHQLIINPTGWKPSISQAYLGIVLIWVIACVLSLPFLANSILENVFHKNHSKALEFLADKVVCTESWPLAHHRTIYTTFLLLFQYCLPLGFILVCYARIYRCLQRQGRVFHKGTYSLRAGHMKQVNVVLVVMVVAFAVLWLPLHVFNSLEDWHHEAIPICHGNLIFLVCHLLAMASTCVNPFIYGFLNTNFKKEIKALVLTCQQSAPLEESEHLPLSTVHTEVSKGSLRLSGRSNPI
Description: as §1

SMILES | Sol6 [1] | Sol7 [1] | EC50 [2] | Ki [3] | EC50 [4] | EC50 [5] | EC50 [6]
CC(C)CC(=O)N[C@@H](C)C(=O)N1CCC[C@H]1C(=O)N[C@@H](CCC(=O)O)C(=O)N[C@@H](CCCCNC(=O)CCCCCNC(=O)CC[C@H](NC(=O)CCCCCCCCCCCCCCCCC(=O)O)C(=O)O)C(=O)N1CCC[C@H]1C(=O)N[C@@H](CCC(=O)O)C(=O)N[C@@H](CCC(=O)O)C(=O)N[C@@H](CC(=O)O)C(=O)N[C@@H](C)C(=O)N[C@@H](CCC(=O)O)C(=O)N1CCC[C@H]1C(=O)N[C@@H](CCC(=O)O)C(=O)N[C@@H](CCC(=O)O)C(=O)N[C@H](C(=O)N[C@@H](CCC(N)=O)C(=O)N[C@@H](CCCNC(=N)N)C(=O)N[C@@H](Cc1ccc(O)cc1)C(=O)N[C@@H](Cc1ccc(O)cc1)C(=O)N[C@H](C(=O)N[C@@H](CO)C(=O)N[C@@H](CC(C)C)C(=O)N[C@@H](CCCNC(=N)N)C(=O)N[C@@H](Cc1c[nH]cn1)C(=O)N[C@@H](Cc1ccc(O)cc1)C(=O)N[C@@H](Cc1ccc(O)cc1)C(=O)N[C@@H](CC(N)=O)C(=O)N[C@@H](Cc1c[nH]c2ccccc12)C(=O)N[C@@H](CC(C)C)C(=O)N[C@H](C(=O)N[C@@H](CCCNC(=N)N)C(=O)N[C@@H](CCC(N)=O)C(=O)N[C@@H](CCCNC(=N)N)C(=O)N[C@@H](Cc1ccc(O)cc1)C(N)=O)[C@@H](C)O)C(C)C)C(C)C [Compound 53, N{alpha-4}-(3-methylbutanoyl)-N{epsilon-7}-(6-[(4S)-4-carboxy-4-(17-carboxyheptadecanamido)butanamido]hexanoyl)-[4A,7K,9E,13E,17V,18Q,22V,28Y,30W,31L]-hPYY(4-36)] | 8.7 mg/mL | 9.6 mg/mL | > 5000 nM | 3.07 nM | > 5000 nM | 0.352 nM | > 5000 nM
CC[C@H](C)[C@H](NC(=O)[C@H](CCC(=O)O)NC(=O)[C@H](CCC(=O)O)NC(=O)[C@H](CCC(=O)O)NC(=O)[C@H](CO)NC(=O)[C@H](C)NC(=O)[C@H](CC(=O)O)NC(=O)[C@H](CCC(=O)O)NC(=O)[C@H](CCC(=O)O)NC(=O)[C@@H]1CCCN1C(=O)[C@H](CCCCNC(=O)CCCCCNC(=O)CC[C@H](NC(=O)CCCCCCCCCCCCCCCCC(=O)O)C(=O)O)NC(=O)[C@H](CCC(=O)O)NC(=O)[C@@H]1CCCN1C(=O)[C@H](C)NC(=O)CC(C)C)C(=O)N[C@@H](CCC(N)=O)C(=O)N[C@@H](CCCNC(=N)N)C(=O)N[C@@H](Cc1ccc(O)cc1)C(=O)N[C@@H](Cc1ccc(O)cc1)C(=O)N[C@H](C(=O)N[C@@H](CO)C(=O)N[C@@H](CC(C)C)C(=O)N[C@@H](CCCNC(=N)N)C(=O)N[C@@H](Cc1c[nH]cn1)C(=O)N[C@@H](Cc1ccc(O)cc1)C(=O)N[C@@H](Cc1ccc(O)cc1)C(=O)N[C@@H](CC(N)=O)C(=O)N[C@@H](Cc1c[nH]c2ccccc12)C(=O)N[C@@H](CC(C)C)C(=O)N[C@H](C(=O)N[C@@H](CCCNC(=N)N)C(=O)N[C@@H](CCC(N)=O)C(=O)N[C@@H](CCCNC(=N)N)C(=O)N[C@@H](Cc1ccc(O)cc1)C(N)=O)[C@@H](C)O)C(C)C [Compound 55, N{alpha-4}-(3-methylbutanoyl)-N{epsilon-7}-(6-[(4S)-4-carboxy-4-(17-carboxyheptadecanamido)butanamido]hexanoyl)-[4A,7K,9E,14E,17I,18Q,22V,28Y,30W,31L]-hPYY(4-36)] | >10.0 mg/mL | >10.0 mg/mL | > 5000 nM | 2.96 nM | > 5000 nM | 0.352 nM | > 5000 nM
CC[C@H](C)[C@H](NC(=O)[C@H](Cc1ccc(O)cc1)NC(=O)[C@H](Cc1ccc(O)cc1)NC(=O)[C@H](CCCNC(=N)N)NC(=O)[C@H](CCC(N)=O)NC(=O)[C@@H](NC(=O)[C@H](CCC(=O)O)NC(=O)[C@H](CCC(=O)O)NC(=O)[C@@H]1CCCN1C(=O)[C@H](CO)NC(=O)[C@H](C)NC(=O)[C@H](CC(=O)O)NC(=O)[C@H](CCC(=O)O)NC(=O)[C@H](CCC(=O)O)NC(=O)[C@@H]1CCCN1C(=O)[C@H](CCCCNC(=O)CCCCCNC(=O)CC[C@H](NC(=O)CCCCCCCCCCCCCCCCC(=O)O)C(=O)O)NC(=O)[C@H](C)NC(=O)[C@@H]1CCCN1C(=O)[C@H](C)NC(=O)CC(C)C)[C@@H](C)CC)C(=O)N[C@@H](CO)C(=O)N[C@@H](CC(C)C)C(=O)N[C@@H](CCCNC(=N)N)C(=O)N[C@@H](Cc1c[nH]cn1)C(=O)N[C@@H](Cc1ccc(O)cc1)C(=O)N[C@@H](Cc1ccc(O)cc1)C(=O)N[C@@H](CC(N)=O)C(=O)N[C@@H](Cc1c[nH]c2ccccc12)C(=O)N[C@@H](CC(C)C)C(=O)N[C@H](C(=O)N[C@@H](CCCNC(=N)N)C(=O)N[C@@H](CCC(N)=O)C(=O)N[C@@H](CCCNC(=N)N)C(=O)N[C@@H](Cc1ccc(O)cc1)C(N)=O)[C@@H](C)O [Compound 195, N{alpha-4}-(3-methylbutanoyl)-N{epsilon-7}-(6-[(4S)-4-carboxy-4-(17-carboxyheptadecanamido)butanamido]hexanoyl)-[4A,6A,7K,9E,17I,18Q,22I,28Y,30W,31L]-hPYY(4-36)] | 8.2 mg/mL | 8.2 mg/mL | > 5000 nM | 0.78 nM | > 5000 nM | 0.197 nM | > 5000 nM

From patent US12391737B2, “Soluble NPY2 receptor agonists” (Boehringer Ingelheim International GmbH, priority 2020, dated 2025)
